Source: ChEMBL document CHEMBL1149119, “Discovery of a potent and novel motilin agonist” (J Med Chem, 2004)

Assays:
Motilin receptor [1] = target: T1, Motilin receptor (Homo sapiens, UniProt O43193); assay: In vitro effective concentration towards human motilin receptor; type: functional
Motilin receptor [2] = target: T1, Motilin receptor; assay: In vitro binding affinity towards human motilin receptor

T1 sequence (O43193 whole entry): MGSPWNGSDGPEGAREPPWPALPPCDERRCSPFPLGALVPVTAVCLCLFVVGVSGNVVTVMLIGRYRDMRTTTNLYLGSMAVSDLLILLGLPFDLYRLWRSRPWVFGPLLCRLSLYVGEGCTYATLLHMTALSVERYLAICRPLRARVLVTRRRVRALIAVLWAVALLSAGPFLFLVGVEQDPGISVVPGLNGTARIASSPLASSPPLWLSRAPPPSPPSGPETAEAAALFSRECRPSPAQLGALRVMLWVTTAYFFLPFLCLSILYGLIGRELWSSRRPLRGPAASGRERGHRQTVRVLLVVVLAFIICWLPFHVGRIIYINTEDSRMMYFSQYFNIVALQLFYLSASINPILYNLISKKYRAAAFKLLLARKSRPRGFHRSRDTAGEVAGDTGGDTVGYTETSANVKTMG

Structure (SMILES)	EC50 (Motilin receptor [1])	Ki (Motilin receptor [2])
COC(=O)[C@@H](CCc1ccccc1)NC(=O)C1C=CC2(CCNCC2)n2c(=O)n(Cc3ccc4c(c3)OCO4)c(=O)n21 (stereo partly specified)	> 10000 nM	> 10000 nM
NC(=O)[C@@H](CCc1ccccc1)NC(=O)C1C=CC2(CCNCC2)n2c(=O)n(Cc3ccc4c(c3)OCO4)c(=O)n21 (stereo partly specified)	> 10000 nM	> 10000 nM
C[C@H](NC(=O)C1C=CC2(CCNCC2)n2c(=O)n(Cc3ccc4c(c3)OCO4)c(=O)n21)C(N)=O (stereo partly specified)	> 10000 nM	–
NC(=O)[C@H](Cc1ccccc1)NC(=O)C1C=CC2(CCNCC2)n2c(=O)n(Cc3ccc4c(c3)OCO4)c(=O)n21 (stereo partly specified)	> 10000 nM	–
NC(=O)[C@H](CCc1ccccc1)NC(=O)C1C=CC2(CCNCC2)n2c(=O)n(Cc3ccc4c(c3)OCO4)c(=O)n21 (stereo in doubt; 1A)	> 10000 nM	5800 nM
NC(=O)[C@H](CCc1ccccc1)NC(=O)C1C=CC2(CCNCC2)n2c(=O)n(Cc3ccc4c(c3)OCO4)c(=O)n21 (stereo in doubt; 13B)	> 10000 nM	> 10000 nM
NC(=O)[C@@H](CCc1ccccc1)NC(=O)[C@@H](CCc1ccccc1)NC(=O)C1CCC2(CCNCC2)n2c(=O)n(Cc3ccc4c(c3)OCO4)c(=O)n21 (stereo partly specified)	7.3 nM	2.7 nM
NC(=O)[C@H](CCc1ccccc1)NC(=O)C1C=CC2(CCNCC2)n2c(=O)n(Cc3ccc4c(c3)OCO4)c(=O)n21 (stereo in doubt; 1B)	560 nM	4100 nM
C[C@@H](NC(=O)C1C=CC2(CCNCC2)n2c(=O)n(Cc3ccc4c(c3)OCO4)c(=O)n21)C(N)=O (stereo partly specified)	> 10000 nM	–
NC(=O)[C@@H](Cc1ccccc1)NC(=O)C1C=CC2(CCNCC2)n2c(=O)n(Cc3ccc4c(c3)OCO4)c(=O)n21 (stereo partly specified)	4200 nM	–

The next molecules have a lower EC50 (Motilin receptor [1]) than those just listed; values first:

EC50 (Motilin receptor [1])	Ki (Motilin receptor [2])	Structure (SMILES)
0.35 nM	1 nM	NC(=O)[C@H](CCc1ccccc1)NC(=O)[C@H](CCc1ccccc1)NC(=O)C1CCC2(CCNCC2)n2c(=O)n(Cc3ccc4c(c3)OCO4)c(=O)n21 (stereo in doubt; 11)
0.047 nM	0.7 nM	NC(=O)[C@H](CCc1ccccc1)NC(=O)[C@H](CCc1ccccc1)NC(=O)C1CCC2(CCNCC2)n2c(=O)n(Cc3ccc4c(c3)OCO4)c(=O)n21 (stereo in doubt; 11A)
4.2 nM	3.4 nM	CC[C@H]1OC(=O)[C@H](C)[C@@H](O[C@H]2C[C@@](C)(OC)C[C@@H](C)O2)[C@H](C)[C@@H](O[C@@H]2O[C@H](C)C[C@H](N(C)CC)[C@H]2O)[C@@]2(C)CC(C)=C(O2)[C@H](C)[C@@H](O)[C@H]1C
0.15 nM	3.1 nM	CC[C@H](C)[C@H](NC(=O)[C@@H]1CCCN1C(=O)[C@@H](NC(=O)[C@@H](N)Cc1ccccc1)C(C)C)C(=O)N[C@@H](Cc1ccccc1)C(=O)N[C@H](C(=O)N[C@@H](Cc1ccc(O)cc1)C(=O)NCC(=O)N[C@@H](CCC(=O)O)C(=O)N[C@@H](CC(C)C)C(=O)N[C@@H](CCC(N)=O)C(=O)N[C@@H](CCCNC(=N)N)C(=O)N[C@@H](CCSC)C(=O)N[C@@H](CCC(N)=O)C(=O)N[C@@H](CCC(=O)O)C(=O)N[C@@H](CCCCN)C(=O)N[C@@H](CCC(=O)O)C(=O)N[C@@H](CCCNC(=N)N)C(=O)N[C@@H](CC(N)=O)C(=O)N[C@@H](CCCCN)C(=O)NCC(=O)N[C@@H](CCC(N)=O)C(=O)O)[C@@H](C)O [MOTILIN]
0.22 nM	2 nM	NC(=O)[C@H](CCc1ccccc1)NC(=O)[C@H](CCc1ccccc1)NC(=O)C1C=CC2(CCNCC2)n2c(=O)n(Cc3ccc4c(c3)OCO4)c(=O)n21 (stereo partly specified)
